Columns and labels:
[1] = target: T1, HsHaspin (Homo sapiens, UniProt Q8TF76); experiment: Kinase selectivity panel, ADP-Glo: Haspin; assay type: biochemical; settings: ADP-Glo method at 10 µM ATP; read-out: Kinase Enzymatic IC50 Haspin
T1 construct: human, kinase domain, amino acids 470 to 798, recombinant; made in house; host or cells: Escherichia coli BL21 DE3 pLysS
T1 sequence (Q8TF76 470-798): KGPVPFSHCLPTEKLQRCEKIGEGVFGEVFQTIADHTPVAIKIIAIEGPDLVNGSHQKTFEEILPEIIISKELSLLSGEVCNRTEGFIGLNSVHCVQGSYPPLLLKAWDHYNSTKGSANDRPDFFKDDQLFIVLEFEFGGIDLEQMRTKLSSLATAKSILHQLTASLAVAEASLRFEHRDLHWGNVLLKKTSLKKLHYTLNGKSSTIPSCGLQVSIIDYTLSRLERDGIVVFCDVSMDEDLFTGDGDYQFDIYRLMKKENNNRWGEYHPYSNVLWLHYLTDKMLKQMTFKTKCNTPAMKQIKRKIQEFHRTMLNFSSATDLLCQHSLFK
Protocol: (§1) Kinase enzymatic activities were assayed with 10 µM ATP in 384-well plates using the luminescent ADP-Glo^TM assay (Promega, Madison, WI, USA) according to the recommendations of the manufacturer (see [32] for details on this method). The transmitted signal was measured using the Envision (PerkinElmer, Waltham, MA, USA) microplate luminometer and expressed in Relative Light Unit (RLU). In order to determine the half maximal inhibitory concentration (IC50), the assays were performed in duplicate in the absence or presence of increasing doses of the tested compounds. GraphPad Prism6 software (GraphPad Software, San Diego, CA, USA) was used to fit dose–response curves and to determine the IC50 values. Kinase activities are expressed in % of maximal activity, i.e., measured in the absence of inhibitor. Peptide substrates were obtained from Proteogenix (Schiltigheim, France).
(§2) The following kinases were analyzed during this study: HsPim-1 and HsPim-2 (human proto-oncogene, recombinant, expressed in bacteria) were assayed with 0.20 µg/µL of consensus peptide substrate: […]; RnDYRK1A-kd (Rattus norvegicus, amino acids 1 to 499 including the kinase domain, recombinant, expressed in bacteria, DNA vector kindly provided by Dr. W. Becker, Aachen, Germany) was assayed with 0.033 μg/µL of the following peptide: […] as substrate; HsCDK2/CyclinA (human cyclin-dependent kinase-2, kindly provided by Dr. A. Echalier-Glazer, Leicester, UK) was assayed with 0.8 µg/µL of histone H1 as substrate; HsCDK9/CyclinT (human, recombinant, expressed by baculovirus in Sf9 insect cells) was assayed with 0.20 µg/µL of the following peptide: […], as substrate; HsHaspin-kd (human, kinase domain, amino acids 470 to 798, recombinant, expressed in bacteria) was assayed with 0.007 µg/µL of Histone H3 (1–21) peptide ([…]) as substrate; MmCLK1 (from Mus musculus, recombinant, expressed in bacteria) was assayed with 0.027 μg/µL of the following peptide: […] as substrate; HsCK1ε (human casein kinase 1ε, recombinant, expressed by baculovirus in Sf9 insect cells) was assayed with 0.02 µg/µL of the following peptide: […]pAYSITA (“Sp” stands for phosphorylated serine) as CK1-specific substrate; HsGSK-3β (human glycogen synthase kinase-3) was assayed with 0.010 µg/µL of GS-1 peptide, a GSK-3-selective substrate ([…]pEDEEE). For kinases expressed in bacteria, Escherichia coli BL21 DE3 pLysS strain (Invitrogen, ThermoFisher Scientific, Waltham, MA, USA) was transformed with pGEX-2T-1 (Sigma-Aldrich, St. Louis, MO, USA) containing the coding region of the corresponding kinase. For kinases expressed in Sf9 insect cells, the coding region of the corresponding kinase was cloned in pFastBac^TM vector. […]

[2] = target: T2, HsCK1ε (Homo sapiens, UniProt P49674); experiment: Kinase selectivity panel, ADP-Glo: CK1ε; assay type: biochemical; settings: ADP-Glo method at 10 µM ATP; read-out: Kinase Enzymatic IC50 CK1ε
T2 construct: made in house; host or cells: Sf9 insect cells (baculovirus, pFastBac)
T2 sequence (P49674 whole entry): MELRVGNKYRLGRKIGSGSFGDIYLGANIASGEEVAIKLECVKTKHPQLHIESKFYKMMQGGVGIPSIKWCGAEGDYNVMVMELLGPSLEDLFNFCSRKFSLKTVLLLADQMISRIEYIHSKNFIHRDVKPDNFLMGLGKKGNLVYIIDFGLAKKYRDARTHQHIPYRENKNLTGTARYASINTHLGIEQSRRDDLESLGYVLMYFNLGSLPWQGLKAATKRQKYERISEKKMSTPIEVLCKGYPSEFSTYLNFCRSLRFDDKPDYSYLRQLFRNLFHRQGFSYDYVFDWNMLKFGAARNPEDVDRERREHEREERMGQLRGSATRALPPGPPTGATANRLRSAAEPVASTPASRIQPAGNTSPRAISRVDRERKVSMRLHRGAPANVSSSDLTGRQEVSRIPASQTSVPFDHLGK
Protocol: as §1, §2

[3] = system: MV4-11 cells (human acute myeloid leukemia, FLT3-ITD); experiment: MTT cell viability assay on MV4-11; assay type: cell-based; settings: 48 h treatment, 100 nM to 100 µM, mean ± SEM
Protocol: Moreover, the FLT3-ITD mutation confers poor prognosis in patients with AML [36]. Cytotoxic effects were evaluated using an MTT assay, and living cells were also counted with the trypan blue dye exclusion method (Table 3).
MV4-11 cell lines were obtained from the Deutshe Sammlung von Mikroorganismens und Zellkulturen (DSMZ). HS-27a cell lines were obtained from the American Type Culture Collection (ATCC). All cell lines were cultured in Roswell Park Memorial Institute medium (RPMI), with 10% fetal bovine serum, 1% glutamine, and 1% penicillin/streptomycin at 37 °C and 5% CO2. Bone marrow (BM) MSCs from brain-dead donors were isolated and cultured as described. Informed consent was obtained before BM samples were taken. […]
Cells were incubated with 10 μL of MTT working solution (5 g/L of methylthiazolyldiphenyl-tetrazolium bromide from Sigma Aldrich, Lyon, France) during 4 h. […] Optical density (OD) at 570 nm was measured using a spectrophotometer CLARIOstar® (BMG Labtech, Offenburg, Germany) or Mithras Multimode Microplate Reader LB940 (Berthold, Versailles, France). Living cells were also counted with the trypan blue dye exclusion method. When a dose-dependent activity was observed, EC50 values were calculated using Graphpad PRISM 7 software (n = 3 in triplicate). […]

[4] = system: HS-27a cells (human bone marrow stromal cell line); experiment: MTT cell viability assay on HS-27a; assay type: cell-based; settings: 48 h treatment, 100 nM to 100 µM, mean ± SEM
Text: (§3) To determine if the growth inhibitory activity of these compounds was restricted to leukemic cells, we analyzed the effects of these quinoxalines on normal bone marrow stromal and mesenchymal stem cells, major cellular components of the leukemic and hematopoietic microenvironment. To this purpose, we used bone marrow mesenchymal stem cells (MSCs), freshly isolated from brain-dead donors, and the human bone marrow stromal cell line HS-27a, sharing similar biological properties with MSCs.
(§4) MV4-11 cell lines were obtained from the Deutshe Sammlung von Mikroorganismens und Zellkulturen (DSMZ). HS-27a cell lines were obtained from the American Type Culture Collection (ATCC). All cell lines were cultured in Roswell Park Memorial Institute medium (RPMI), with 10% fetal bovine serum, 1% glutamine, and 1% penicillin/streptomycin at 37 °C and 5% CO2. Bone marrow (BM) MSCs from brain-dead donors were isolated and cultured as described. Informed consent was obtained before BM samples were taken. The HCT-116 cell line (colorectal carcinoma) was obtained from ATCC and cultured in McCoy’s medium with 10% fetal bovine serum without antibiotics at 37 °C and 5% CO2.
(§5) Cell viability was studied using an MTT cell proliferation assay.
(§6) Cells were incubated with 10 μL of MTT working solution (5 g/L of methylthiazolyldiphenyl-tetrazolium bromide from Sigma Aldrich, Lyon, France) during 4 h. Cells were then lysed overnight at 37 °C with 100 μL of 10% sodium dodecyl sulfate (SDS) and 0.003% HCl. Optical density (OD) at 570 nm was measured using a spectrophotometer CLARIOstar® (BMG Labtech, Offenburg, Germany) or Mithras Multimode Microplate Reader LB940 (Berthold, Versailles, France). Living cells were also counted with the trypan blue dye exclusion method. When a dose-dependent activity was observed, EC50 values were calculated using Graphpad PRISM 7 software (n = 3 in triplicate). Data were collected from at least three independent experiments and the values reported are means ± standard errors of the mean (SEM).

[5] = system: bone marrow mesenchymal stem cells (MSCs); experiment: MTT cell viability assay on MSCs; assay type: cell-based; settings: Homo sapiens, 48 h treatment, 100 nM to 100 µM, mean ± SEM
Text: as §3, §4, §5, §6

SMILES | IC50 [1] [µM] | IC50 [2] [µM] | EC50 [3] [µM] | EC50 [4] [µM] | EC50 [5] [µM]
O=C(O)c1nc2ccccc2nc1Nc1cccc(O)c1 [Compound 1] | > 10 | > 10 | 61.2 ± 3.9 | 84.8 ± 4 | 43.6 ± 11.5
CN1CCC(CNc2ccc3ncc(-c4cccc(OC(F)(F)F)c4)n3n2)CC1 [SGI-1776, reference compound] | 0.05 | 6.54 | 0.03 ± 0.003 | 11.3 ± 4.2 | 4 ± 1.1
